Measurements: PubChem BioAssay AID200 (DTP/NCI, 2004)
Values joined by “and” are separate entries in the source; they are usually repeats but may differ in a detail not shown here. Equal entries are not always repeated. Toxic doses and inconclusive results are not listed. The calls were made as follows: active = survival T/C of 150% or more; inactive = T/C below 125% in these data.

Test system: B6C3F1 mice, B16 melanoma ip, median survival T/C
Assay: NCI In Vivo Anticancer Drug Screen. Data for tumor model B16 Melanoma (intraperitoneal) in B6C3F1 mice
Settings: endpoint: median survival time, higher = longer survival
Procedure, shortened: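 Antitumor effect was judged in mice with transplanted tumors by dividing the treated group's survival measure by that of vehicle controls.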

[1] = dose: 3.12 mg/kg/injection, schedule: Q01DX009 (ip), vehicle: Klucel (hydroxypropylcellulose) (HPC)
[2] = dose: 6.25 mg/kg/injection, schedule: Q01DX009 (ip), vehicle: Klucel (hydroxypropylcellulose) (HPC)
[3] = dose: 12.5 mg/kg/injection, schedule: Q01DX009 (ip), vehicle: Klucel (hydroxypropylcellulose) (HPC)
[4] = dose: 100.0 mg/kg/injection, schedule: Q01DX009 (ip), vehicle: saline with Tween-80
[5] = dose: 200.0 mg/kg/injection, schedule: Q01DX009 (ip), vehicle: saline with Tween-80
[6] = dose: 25.0 mg/kg/injection, schedule: Q01DX009 (ip), vehicle: Klucel (hydroxypropylcellulose) (HPC)
[7] = dose: 50.0 mg/kg/injection, schedule: Q01DX009 (ip), vehicle: Klucel (hydroxypropylcellulose) (HPC)
[8] = dose: 100.0 mg/kg/injection, schedule: Q01DX009 (ip), vehicle: Klucel (hydroxypropylcellulose) (HPC)
[9] = dose: 200.0 mg/kg/injection, schedule: Q01DX009 (ip), vehicle: Klucel (hydroxypropylcellulose) (HPC)
[10] = dose: 400.0 mg/kg/injection, schedule: Q01DX009 (ip), vehicle: Klucel (hydroxypropylcellulose) (HPC)
[11] = dose: 50.0 mg/kg/injection, schedule: Q01DX009 (ip), vehicle: saline with Tween-80
[12] = dose: 3.12 mg/kg/injection, schedule: Q01DX009 (ip), vehicle: saline with Tween-80
[13] = dose: 12.5 mg/kg/injection, schedule: Q01DX009 (ip), vehicle: saline with Tween-80
[14] = dose: 25.0 mg/kg/injection, schedule: Q01DX009 (ip), vehicle: saline with Tween-80

Measured: T/C

O=c1ccc2ccccc2o1
inactive: dose: 7.5 mg/kg/injection, schedule: Q01DX009 (ip), vehicle: saline with Tween-80 116 % of control and 118 % of control | dose: 15.0 mg/kg/injection, schedule: Q01DX009 (ip), vehicle: saline with Tween-80 117 % of control and 120 % of control | dose: 30.0 mg/kg/injection, schedule: Q01DX009 (ip), vehicle: saline with Tween-80 111 % of control and 112 % of control | dose: 60.0 mg/kg/injection, schedule: Q01DX009 (ip), vehicle: saline with Tween-80 120 % of control and 100 % of control | dose: 120.0 mg/kg/injection, schedule: Q01DX009 (ip), vehicle: saline with Tween-80 90 % of control and 96 % of control

C[C@@H]1C[C@H]2[C@@H]3CCC4=CC(=O)C=C[C@]4(C)[C@@]3(F)[C@@H](O)C[C@]2(C)[C@@]1(O)C(=O)CO
inactive: [1] 109 % of control | [2] 118 % of control | [3] 104 % of control

CCN(CC)CC(=O)c1ccc(O)c(O)c1
inactive: [4] 92 % of control | [5] 107 % of control | dose: 400.0 mg/kg/injection, schedule: Q01DX009 (ip), vehicle: saline with Tween-80 117 % of control

NC1=NC(O)C=C1 (stereo not drawn)
inactive: dose: 3.12 mg/kg/injection, schedule: Q01DX009 (ip), vehicle: saline + alcohol 108 % of control | dose: 6.25 mg/kg/injection, schedule: Q01DX009 (ip), vehicle: saline + alcohol 108 % of control | dose: 12.5 mg/kg/injection, schedule: Q01DX009 (ip), vehicle: saline + alcohol 100 % of control | dose: 25.0 mg/kg/injection, schedule: Q01DX009 (ip), vehicle: saline + alcohol 104 % of control

CC[C@@]1(O)C(=O)OCc2c1cc1n(c2=O)Cc2cc3cc(O)ccc3nc2-1
active: dose: 0.37 mg/kg/injection, schedule: Q01DX009 (ip), vehicle: suspension in saline 155 % of control | dose: 0.38 mg/kg/injection, schedule: Q01DX009 (ip), vehicle: other 160 % of control | dose: 0.75 mg/kg/injection, schedule: Q01DX009 (ip), vehicle: other 191 % of control | dose: 0.75 mg/kg/injection, schedule: Q01DX009 (ip), vehicle: suspension in saline 183 % of control | dose: 1.5 mg/kg/injection, schedule: Q01DX009 (ip), vehicle: other 197 % of control | dose: 1.5 mg/kg/injection, schedule: Q01DX009 (ip), vehicle: suspension in saline 201 % of control | dose: 3.0 mg/kg/injection, schedule: Q01DX009 (ip), vehicle: suspension in saline 201 % of control

N#Cc1ccc(NN=O)nc1
inactive: dose: 3.12 mg/kg/injection, schedule: Q01DX009 (ip), vehicle: water 102 % of control | dose: 3.13 mg/kg/injection, schedule: Q01DX009 (ip), vehicle: water 119 % of control | dose: 4.5 mg/kg/injection, schedule: Q01DX009 (ip), vehicle: saline 117 % of control | dose: 6.25 mg/kg/injection, schedule: Q01DX009 (ip), vehicle: water 113 % of control and 122 % of control | dose: 7.5 mg/kg/injection, schedule: Q01DX009 (ip), vehicle: saline 108 % of control | dose: 20.83 mg/kg/injection, schedule: Q01DX009 (ip), vehicle: saline 123 % of control | dose: 34.72 mg/kg/injection, schedule: Q01DX009 (ip), vehicle: saline 120 % of control

CC1=NNC(=O)C1CCO (stereo not drawn)
inactive: [3] 98 % of control | [6] 104 % of control | [7] 98 % of control | [8] 98 % of control | [9] 96 % of control | [10] 96 % of control

COc1ccc2[nH]c3ccc4cc[n+](CCN5CCC(C6CCN(CC[n+]7ccc8ccc9[nH]c%10ccc(OC)cc%10c9c8c7)CC6)CC5)cc4c3c2c1
active: dose: 6.0 mg/kg/injection, schedule: Q01DX009 (ip), vehicle: water 155 % of control | dose: 12.0 mg/kg/injection, schedule: Q01DX009 (ip), vehicle: water 158 % of control | [3] 155 % of control | [6] 203 % of control | dose: 25.0 mg/kg/injection, schedule: Q01DX009 (ip), vehicle: water 177 % of control | [7] 192 % of control | dose: 50.0 mg/kg/injection, schedule: Q01DX009 (ip), vehicle: water 168 % of control | [8] 167 % of control | dose: 100.0 mg/kg/injection, schedule: Q01DX009 (ip), vehicle: water 197 % of control

CC(C)(C[NH-])C[NH-].[Cl][Pt+2][Cl]
active: dose: 2.0 mg/kg/injection, schedule: Q01DX009 (ip), vehicle: water 175 % of control | dose: 2.0 mg/kg/injection, schedule: Q04DX003 (ip), vehicle: water 168 % of control | dose: 4.0 mg/kg/injection, schedule: Q04DX003 (ip), vehicle: water 200 % of control
inactive: dose: 0.25 mg/kg/injection, schedule: Q01DX009 (ip), vehicle: water 111 % of control | dose: 0.5 mg/kg/injection, schedule: Q01DX009 (ip), vehicle: water 123 % of control

Nc1nc(N)c(N=O)c(Nc2ccc(I)cc2)n1
inactive: [11] 115 % of control | [4] 110 % of control | [5] 98 % of control

CCCC(=O)OCC1OC(n2cnc3c(=S)nc(N)[nH]c32)C(OC(=O)CCC)C1OC(=O)CCC (stereo not drawn)
inactive: dose: 0.78 mg/kg/injection, schedule: Q01DX009 (ip), vehicle: Klucel (hydroxypropylcellulose) (HPC) 103 % of control | dose: 1.56 mg/kg/injection, schedule: Q01DX009 (ip), vehicle: Klucel (hydroxypropylcellulose) (HPC) 104 % of control | [1] 110 % of control | [2] 114 % of control

CCNC(=O)OCc1c(COC(=O)NCC)c(-c2ccc(Cl)c(Cl)c2)n2c1CCC2
inactive: dose: 0.78 mg/kg/injection, schedule: Q01DX009 (ip), vehicle: saline with Tween-80 95 % of control | [12] 119 % of control | [14] 103 % of control
active: [13] 162 % of control

Nc1ccc(S(=O)(=O)N/N=C/c2ccccc2[N+](=O)[O-])cc1
inactive: [12] 95 % of control | dose: 6.25 mg/kg/injection, schedule: Q01DX009 (ip), vehicle: saline with Tween-80 95 % of control | [13] 96 % of control | [14] 101 % of control | [11] 104 % of control

O=CC(=O)c1ccc(O)cc1
inactive: dose: 6.25 mg/kg/injection, schedule: Q01DX009 (ip), vehicle: saline 94 % of control | dose: 12.5 mg/kg/injection, schedule: Q01DX009 (ip), vehicle: saline 99 % of control | dose: 25.0 mg/kg/injection, schedule: Q01DX009 (ip), vehicle: saline 108 % of control | dose: 50.0 mg/kg/injection, schedule: Q01DX009 (ip), vehicle: saline 120 % of control

O=C1c2ccccc2C(=O)c2c(NCCNCCO)ccc(NCCNCCO)c21
active: dose: 1.0 mg/kg/injection, schedule: Q01DX009 (ip), vehicle: other 151 % of control | dose: 2.0 mg/kg/injection, schedule: Q01DX009 (ip), vehicle: other 180 % of control and 186 % of control | dose: 2.5 mg/kg/injection, schedule: Q01DX009 (ip), vehicle: water 195 % of control | dose: 4.0 mg/kg/injection, schedule: Q01DX009 (ip), vehicle: other 195 % of control and 248 % of control | dose: 4.0 mg/kg/injection, schedule: Q01DX009 (ip), vehicle: saline 179 % of control | dose: 5.0 mg/kg/injection, schedule: Q01DX009 (ip), vehicle: water 205 % of control | dose: 8.0 mg/kg/injection, schedule: Q01DX009 (ip), vehicle: other 218 % of control and 243 % of control | dose: 8.0 mg/kg/injection, schedule: Q01DX009 (ip), vehicle: saline 234 % of control | dose: 10.0 mg/kg/injection, schedule: Q01DX009 (ip), vehicle: water 215 % of control | dose: 16.0 mg/kg/injection, schedule: Q01DX009 (ip), vehicle: other 215 % of control and 231 % of control | dose: 16.0 mg/kg/injection, schedule: Q01DX009 (ip), vehicle: saline 292 % of control | dose: 20.0 mg/kg/injection, schedule: Q01DX009 (ip), vehicle: water 220 % of control | dose: 32.0 mg/kg/injection, schedule: Q01DX009 (ip), vehicle: saline 292 % of control | dose: 62.5 mg/kg/injection, schedule: Q01DX001 (ip), vehicle: saline 153 % of control

CC(C)(OC(=O)NC(CC(N)=O)C(=O)O)c1ccc(-c2ccccc2)cc1 (stereo not drawn)
inactive: [8] 97 % of control | [9] 91 % of control | [10] 89 % of control

COC1C(CO)OC(n2cnc3c(=S)nc(N)[nH]c32)C1O (stereo not drawn)
inactive: [7] 116 % of control | [8] 114 % of control
